Measurements published in patent publication US10766928B2, “Targeted conformationally-constrained kinked endosomal disrupting peptides” (priority 2012, dated 2020).
In brackets after ≈: the same amount, converted by molar mass. Read-outs that look alike come from different tables or passages of the source. Non-standard residues stand in square brackets, D forms with d. Residues, ends and D or L forms follow the SMILES beside them. *: point of attachment. Pentanoyl(5-NH-cholesteryl) = CC(C)CCC[C@@H](C)[C@H]1CC[C@H]2[C@@H]3CC=C4C[C@@H](NCCCCC(=O)*)CC[C@]4(C)[C@H]3CC[C@]12C; PEG3 = NCCOCCOCCOCCC(=O)O; Aib = CC(C)(N)C(=O)O; Ahx = NCCCCCC(=O)O; βAla = NCCC(=O)O

Assays:
[1] = tested on: endosomes of Jurkat lymphocytes; experiment: Endosome disruption in Jurkat lymphocytes: release of carboxyfluorescein from disulfide probe Compound 2, flow cytometry; settings: for Efficacy (% of max. 1): % change in cellular fluorescence relative to maximal response of Compound 1 (100%); for Efficacy (% of max. 1) / Efficacy (% of 1): Jurkat; for Efficacy (% of 1): % of the effect of compound 1, calculated span of dose-response curve, ± standard deviation
Experimental: (§1) The effects of the compounds of the invention on human Juikat leukemia cells were evaluated using flow cytometry-based assays of potency, efficacy, and toxicity. […] Analysis of flow cytometry data by non-linear regression was used to determine IC50 values for potency with the efficacy expressed as a percentage. […] Dose-dependent effects on cellular viability after 48 h at 37° C. in culture were also measured by flow cytometry.
(§2) The # represents the compound number in accordance with Tables A, B, and C. Concentrations of compound stock solutions were determined by absorbance measurements at 280 nm. Efficacy was determined as % change in cellular fluorescence relative to the maximal response of Compound 1, defined as 100%. Potencies and efficacies in Jurkat lymphocytes were measured by flow cytometry after treatment of cells with the compounds listed and the fluorescent probe Compound 2 (2.5 μM) for 14 hours. Toxicity to this cell line was determined by flow cytometry analysis of light scattering and counterstaining with PI after treatment for 48 h at 37° C. in culture. […] N.D., not determined.
Cells were treated with fluorescent molecular probe Compound 2 (2.5 μM) and endosome disruptors for 14 hours at 37° C. Enhanced cellular fluorescence resulting from release of the pH-sensitive fluorophore Compound 3 into the cytoplasm was quantified by flow cytometry.
Natural amino acids are represented by single letter codes. Codes for non-standard elements are as follows: Ch1: (3β-Cholest-5-en-3-yl-ammonio)pentanoyl; Ch2: (Cholester-3-yl)oxy-βAla-βAla; X: ε-Ahx; U: Aib; PB: Pacific Blue fluorophore. O: 3-(2-(2-(2-aminoethoxy)ethoxy)ethoxy)propanyl.

Jurkat lymphocytes = settings: 48 h
Experimental: as §1, §2

[2] = Thermodynamic solubility in PBS (pH 7.4); format: physicochemical; settings: phosphate buffered saline, pH 7.4, Table 3; PBS pH 7.4, 24 h at 22° C.; read-out: Solubility
Text: Values in parentheses represent 95% confidence intervals. N.D., not determined.
Measurements represent duplicate or more replicates, with active peptides subjected to multiple replicates. ND: not determined. The peptide was non-toxic and soluble in cell culture medium at this concentration.

[3] = read-out: Potency, Table 2, EC50 ± standard deviation, Jurkat lymphocytes, disulfide-linked fluorescent probe (2.5 μM), 14 h

SMILES: CC(C)CCC[C@@H](C)[C@H]1CC[C@H]2[C@@H]3CC=C4C[C@@H](NCCCCC(=O)NCCC(=O)N[C@@H](CCC(=O)O)C(=O)N[C@@H](CCC(=O)O)C(=O)NCCCCCC(=O)NC(C)(C)C(=O)NC(C)(C)C(=O)NC(C)(C)C(=O)N[C@@H](Cc5c[nH]c6ccccc56)C(=O)N[C@@H](C)C(=O)N[C@@H](C)C(=O)N[C@@H](Cc5ccc(O)cc5)C(=O)N[C@@H](Cc5c[nH]c6ccccc56)C(=O)N5CCC[C@H]5C(=O)N5CCC[C@H]5C(=O)N[C@H](C(=O)N[C@@H](C)C(N)=O)C(C)C)CC[C@]4(C)[C@H]3CC[C@]12C [Compound 13, R = BEEXUUUWAAYWPPVA-CONH2] ({Pentanoyl(5-NH-cholesteryl)-βAla}-EE[Ahx][Aib][Aib][Aib]WAAYWPPVA-NH2)
- EC50 ([1]; 14 h): 0.7 µM
- IC50 (Jurkat lymphocytes): 16 µM

SMILES: CC(C)CCC[C@@H](C)[C@H]1CC[C@H]2[C@@H]3CC=C4C[C@@H](NCCCCC(=O)NCCC(=O)N[C@@H](CCC(=O)O)C(=O)N[C@@H](CCC(=O)O)C(=O)NCCCCCC(=O)NC(C)(C)C(=O)NC(C)(C)C(=O)NC(C)(C)C(=O)N[C@@H](C)C(=O)N[C@@H](Cc5c[nH]c6ccccc56)C(=O)N[C@@H](C)C(=O)N[C@@H](Cc5ccc(O)cc5)C(=O)N[C@@H](Cc5c[nH]c6ccccc56)C(=O)N5CCC[C@H]5C(=O)N5CCC[C@H]5C(=O)N[C@H](C(=O)N[C@@H](C)C(N)=O)C(C)C)CC[C@]4(C)[C@H]3CC[C@]12C [Compound 12, R = BEEXUUUAWAYWPPVA-CONH2] ({Pentanoyl(5-NH-cholesteryl)-βAla}-EE[Ahx][Aib][Aib][Aib]AWAYWPPVA-NH2)
- EC50 ([1]; 14 h): 0.4 µM
- IC50 (Jurkat lymphocytes): 14 µM

SMILES: CC(C)CCC[C@@H](C)[C@H]1CC[C@H]2[C@@H]3CC=C4C[C@@H](NCCCCC(=O)NCCC(=O)N[C@@H](CCC(=O)O)C(=O)N[C@@H](CCC(=O)O)C(=O)NCCCCCC(=O)NCCCCCC(=O)NC(C)(C)C(=O)NC(C)(C)C(=O)NC(C)(C)C(=O)NC(C)(C)C(=O)N[C@@H](Cc5ccc(O)cc5)C(=O)N[C@@H](Cc5ccc(O)cc5)C(=O)N[C@@H](Cc5ccc(O)cc5)C(=O)N[C@@H](Cc5ccc(O)cc5)C(=O)N[C@@H](Cc5ccc(O)cc5)C(=O)N5CCC[C@H]5C(=O)N5CCC[C@H]5C(=O)N[C@H](C(=O)N[C@@H](C)C(N)=O)C(C)C)CC[C@]4(C)[C@H]3CC[C@]12C [Compound 24, R = BEEXXUUUUYYYYYPPVA-CONH2] ({Pentanoyl(5-NH-cholesteryl)-βAla}-EE[Ahx][Ahx][Aib][Aib][Aib][Aib]YYYYYPPVA-NH2)
- EC50 ([1]; 14 h): 0.09 µM
- IC50 (Jurkat lymphocytes): 5 µM

SMILES: CC(C)CCC[C@@H](C)[C@H]1CC[C@H]2[C@@H]3CC=C4C[C@@H](NCCCCC(=O)NCCC(=O)N[C@@H](CCC(=O)O)C(=O)N[C@@H](CCC(=O)O)C(=O)NCCCCCC(=O)N[C@@H](C)C(=O)N[C@@H](C)C(=O)N[C@@H](C)C(=O)N[C@@H](Cc5c[nH]c6ccccc56)C(=O)N[C@@H](Cc5c[nH]c6ccccc56)C(=O)N[C@@H](C)C(=O)N[C@@H](Cc5ccc(O)cc5)C(=O)N[C@@H](Cc5c[nH]c6ccccc56)C(=O)N5CCC[C@H]5C(=O)N5CCC[C@H]5C(=O)N[C@H](C(=O)N[C@@H](C)C(N)=O)C(C)C)CC[C@]4(C)[C@H]3CC[C@]12C [Compound 7, R = BEEXAAAWWAYWPPVA-CONH2] ({Pentanoyl(5-NH-cholesteryl)-βAla}-EE[Ahx]AAAWWAYWPPVA-NH2)
- EC50 ([1]; 14 h): 1 µM
- IC50 (Jurkat lymphocytes): 16 µM

SMILES: CC(C)CCC[C@@H](C)[C@H]1CC[C@H]2[C@@H]3CC=C4C[C@@H](NCCCCC(=O)NCCC(=O)N[C@@H](CCC(=O)O)C(=O)N[C@@H](CCC(=O)O)C(=O)NCCCCCC(=O)NC(C)(C)C(=O)NC(C)(C)C(=O)NC(C)(C)C(=O)NC(C)(C)C(=O)N[C@@H](Cc5c[nH]c6ccccc56)C(=O)N[C@@H](Cc5c[nH]c6ccccc56)C(=O)N[C@@H](C)C(=O)N[C@@H](Cc5ccc(O)cc5)C(=O)N[C@@H](Cc5c[nH]c6ccccc56)C(=O)N5CCC[C@H]5C(=O)N5CCC[C@H]5C(=O)N[C@H](C(=O)N[C@@H](C)C(N)=O)C(C)C)CC[C@]4(C)[C@H]3CC[C@]12C [Compound 20, R = BEEXUUUUWWAYWPPVA-CONH2] ({Pentanoyl(5-NH-cholesteryl)-βAla}-EE[Ahx][Aib][Aib][Aib][Aib]WWAYWPPVA-NH2)
- EC50 ([1]; 14 h): 0.1 µM
- IC50 (Jurkat lymphocytes): 15 µM

SMILES: CC(C)CCC[C@@H](C)[C@H]1CC[C@H]2[C@@H]3CC=C4C[C@@H](NCCCCC(=O)NCCC(=O)N[C@@H](CCC(=O)O)C(=O)N[C@@H](CCC(=O)O)C(=O)NCCOCCOCCOCCC(=O)NCCOCCOCCOCCC(=O)NC(C)(C)C(=O)NC(C)(C)C(=O)NC(C)(C)C(=O)NC(C)(C)C(=O)N[C@@H](Cc5c[nH]c6ccccc56)C(=O)N[C@@H](Cc5c[nH]c6ccccc56)C(=O)N[C@@H](C)C(=O)N[C@@H](Cc5ccc(O)cc5)C(=O)N[C@@H](Cc5c[nH]c6ccccc56)C(=O)N5CCC[C@H]5C(=O)N5CCC[C@H]5C(=O)N[C@H](C(=O)N[C@@H](C)C(=O)N[C@@H](C)C(N)=O)C(C)C)CC[C@]4(C)[C@H]3CC[C@]12C [Compound 27, R = BEEOOUUUUWWAYWPPVAA-CONH2] ({Pentanoyl(5-NH-cholesteryl)-βAla}-EE[PEG3][PEG3][Aib][Aib][Aib][Aib]WWAYWPPVAA-NH2)
- EC50 ([1]; 14 h): 0.2 µM
- IC50 (Jurkat lymphocytes): 3 µM

SMILES: CC(C)[C@H](NC(=O)[C@@H](NC(=O)[C@@H]1CCCN1C(=O)[C@@H]1CCCN1C(=O)[C@H](Cc1c[nH]c2ccccc12)NC(=O)[C@H](C)NC(=O)[C@H](C)NC(=O)[C@H](Cc1c[nH]c2ccccc12)NC(=O)[C@H](Cc1c[nH]c2ccccc12)NC(=O)C(C)(C)NC(=O)C(C)(C)NC(=O)C(C)(C)NC(=O)C(C)(C)N)C(C)C)C(N)=O [Compound 47] (H-[Aib][Aib][Aib][Aib]WWAAWPPVV-NH2)
- Efficacy (% of max. 1) ([1]; Table 1, 14 hours): <<50%
- EC50 [1, 3]: > 15 µM
- solubility thermodynamic at 24 h [2]: 63 ± 3 µM (≈ 91.4 µg/mL)

SMILES: CC(C)[C@H](NC(=O)[C@@H]1CCCN1C(=O)[C@@H]1CCCN1C(=O)[C@H](Cc1c[nH]c2ccccc12)NC(=O)[C@H](Cc1ccc(O)cc1)NC(=O)[C@H](C)NC(=O)[C@H](Cc1c[nH]c2ccccc12)NC(=O)[C@H](Cc1c[nH]c2ccccc12)NC(=O)C(C)(C)NC(=O)C(C)(C)NC(=O)C(C)(C)NC(=O)C(C)(C)N)C(=O)N[C@@H](C)C(N)=O [Compound 43] (H-[Aib][Aib][Aib][Aib]WWAYWPPVA-NH2)
- Efficacy (% of max. 1) ([1]; Table 1, 14 hours): 64%
- Efficacy (% of 1) ([1]; Table 2, 14 h): 57 ± 7%
- EC50 ([1]; read-out: Potency (EC50), Table 1, Jurkat lymphocytes, probe Compound 2 (2.5 μM), 14 hours, 95% confidence interval in neighbouring cell): 10 µM
- EC50 [1, 3]: 9 ± 3 µM
- solubility thermodynamic at 24 h [2]: 40 ± 2 µM (≈ 60.6 µg/mL)

SMILES: CC(C)[C@H](NC(=O)[C@H](C)NC(=O)[C@@H]1CCCN1C(=O)[C@@H]1CCCN1C(=O)[C@H](Cc1c[nH]c2ccccc12)NC(=O)[C@H](Cc1ccc(O)cc1)NC(=O)[C@H](C)NC(=O)[C@H](Cc1c[nH]c2ccccc12)NC(=O)[C@H](Cc1c[nH]c2ccccc12)NC(=O)C(C)(C)NC(=O)C(C)(C)NC(=O)C(C)(C)NC(=O)C(C)(C)N)C(N)=O [Compound 51] (H-[Aib][Aib][Aib][Aib]WWAYWPPAV-NH2)
- Efficacy (% of max. 1) ([1]; Table 1, 14 hours): <50%
- EC50 [1, 3]: > 15 µM
- solubility thermodynamic at 24 h [2]: 48 ± 3 µM (≈ 72.7 µg/mL)

SMILES: CC(C)[C@H](NC(=O)[C@@H](NC(=O)[C@@H]1CCCN1C(=O)[C@@H]1CCCN1C(=O)[C@H](Cc1c[nH]c2ccccc12)NC(=O)[C@H](Cc1ccc(O)cc1)NC(=O)[C@H](C)NC(=O)[C@H](Cc1c[nH]c2ccccc12)NC(=O)[C@H](C)NC(=O)C(C)(C)NC(=O)C(C)(C)NC(=O)C(C)(C)NC(=O)C(C)(C)N)C(C)C)C(N)=O [Compound 45] (H-[Aib][Aib][Aib][Aib]AWAYWPPVV-NH2)
- Efficacy (% of max. 1) ([1]; Table 1, 14 hours): <<50%
- Efficacy (% of 1) ([1]; Table 2, 14 h): <10%
- solubility thermodynamic at 24 h [2]: 86 ± 5 µM (≈ 123 µg/mL)
